According to patent publication US12359169B2, “Universal CAR-T cell and preparation method and use thereof” (SHANGHAI LONGYAO BIOTECHNOLOGY INC., LTD., priority 2018, dated 2025):

Experiments:
[1] = system: CD3 gene; assay: sgRNA knockdown efficiency assay (transient transfection, flow detection with anti-TCR antibody); format: cell-based, human; conditions: Jurkat cells, 0.6 μg pLenti-CrisprV2 plasmid, harvested at 48 h, FIG. 1F
Procedure: 2×10^5 Jurkat cells were transiently transfected with 0.6 μg pLenti-CrisprV2-hCD3E1/E2/D1/D2/Z1/Z2/G1/G2/G3 plasmids and cells were harvested at 48 h. Anti-TCR antibody was used for flow detection and untransfected plasmids were used as negative control.
The box in the figure represented the knockdown efficiency, where Z1 has the highest knockdown efficiency (about 81.2%).

[2] = system: CD3^−20uCAR-T cells; assay: Regulation of U-CAR-T survival by ganciclovir in vivo (Raji xenograft); conditions: NSG mice with Raji, FIG. 4C
Procedure: NSG mice (n=6/group) were injected intravenously with 5×10^5 Raji, which was followed by the administration of 1×10^7 CD3^−20uCAR-T cells on day 7 or two hundred micrograms of Ganciclovir were administered on day 7, 10 and 13. 7 days after the treatment, bone marrow, spleen and peripheral blood were collected for analysis of CAR-T cell (mCD45^−hCD45^+hCD3^+) persistence and Raji (mCD45^−hCD45^+hCD19^+) tumor cell burden (FIG. 4C). Statistical significance was determined by Mann-Whitney U test and presented by *P<0.05, **P<0.01, ***P<0.001; NS: Not Significant. Statistical significance was determined by unpaired t test. Statistical significance was presented by *P<0.05, ***P<0.001.

[3] = system: U-CAR-T cells; assay: Regulation of U-CAR-T survival by ganciclovir in vitro; format: cell-based, human; conditions: ganciclovir 0-3 μg/mL, 48 hours, anti-CD20 and anti-CD19 U-CAR-T, FIG. 4A
Procedure: The anti-CD20 U-CAR-T cells obtained in Example 1, anti-CD19 U-CAR-T cells (prepared according to the method in Example 1) and the control CAR-T (without knockout of CD3) were inoculated into 96-well plates, and the number of surviving CAR-Ts was compared after 48 hours by adding the indicated concentration of ganciclovir (0, 0.1 μg/mL, 0.3 μg/mL, 1 μg/mL, 3 μg/mL), and the results are shown in FIG. 4A.

| Compound | knockdown efficiency [1] | clearance of CD3− UCAR-T cells from organs ([2]; 200 micrograms ganciclovir on day 7, 10 and 13, bone marrow, spleen, peripheral blood) | tumor load ([2]; CD3− UCAR-T plus ganciclovir, compared to CD3+ CAR-T) | number of surviving CAR-Ts (survival of U-CAR-T) [3] |
| --- | --- | --- | --- | --- |
| Z1: sgRNA for knockout of CD3 zeta, SEQ ID NO: 8, GTGGAAGGCGCTTTTCACCG (listed as DNA, chemistry not given here) | about 81.2% | – | – | – |
| Nc1nc(O)c2ncn(COC(CO)CO)c2n1 [ganciclovir] | – | effectively cleared | elevated tumor load | can regulate the survival of U-CAR-T |
